Values of other authors, collected in paper PMC5131364, “Pharmacologic modulation of RORγt translates to efficacy in preclinical and translational models of psoriasis and inflammatory arthritis” (Scientific Reports, 2016).

Columns and labels:
mouse CIA model = tested on: mouse CIA model; parameters: method as in PMID 24574218; conditions: mouse CIA model ref 49; cited from earlier work
psoriatic skin = conditions: after 12 weeks of treatment ref 70; cited from earlier work

Row | Compound | joint inflammation and clinical scores (mouse CIA model) | IL-17A and IL-17F gene expression in psoriatic skin (psoriatic skin)
1 | OC(c1ccc(-c2ccc(CN3CCN(Cc4ccncc4)CC3)cc2)c(F)c1)(C(F)(F)F)C(F)(F)F [SR2211] | reduce joint inflammation | –
2 | guselkumab: anti-IL-23 mAb | – | significant inhibition
